Patent US9717247B2, “Synergistic fungicidal active combinations” (BAYER CROPSCIENCE AG, priority 2003, dated 2017)

Experiments:
[1] = system: Pyrenophora teres; experiment: Pyrenophora teres test (barley)/curative; details: in Hordeum vulgare, 288 h, read-out: Efficacy in % found
Method: Pyrenophora teres Test (Barley)/Curative • Solvent: 50 parts by weight of N,N-dimethylacetamide • Emulsifier: 1 part by weight of alkylaryl polyglycol ether
To test for curative activity, young plants are sprayed with a conidia suspension of Pyrenophora teres. The plants remain in an incubation cabinet at 20° C. and 100% relative atmospheric humidity for 48 hours.
The plants are placed in a greenhouse at a temperature of about 20° C. and a relative atmospheric humidity of about 80%.
Evaluation is carried out 12 days after the inoculation.

[2] = system: Erysiphe graminis f.sp. hordei; experiment: Erysiphe test (barley)/curative; type: in vivo; details: application rate 25 g/ha, curative, evaluation 6 days after inoculation
[3] = system: Erysiphe graminis f.sp. hordei; experiment: Erysiphe test (barley)/protective; type: in vivo; details: application rate 12.5 g/ha, protective, evaluation 6 days after inoculation
[4] = system: Leptosphaeria nodorum; experiment: Leptosphaeria nodorum test (wheat)/protective; type: in vivo; details: application rate 25 g/ha, protective, evaluation 11 days after inoculation
[5] = system: Alternaria solani; experiment: Alternaria solani test (tomato)/protective; type: in vivo; details: protective, 3 days after inoculation
[6] = system: Sphaerotheca fuliginea; experiment: Sphaerotheca fuliginea test (cucumber)/protective; type: in vivo; details: protective, 7 days after inoculation; for pest or weed control at 1 g/ha: application rate 1 g/ha; for pest or weed control at 2 g/ha: application rate 2 g/ha
[7] = system: Leptosphaeria nodorum; experiment: Leptosphaeria nodorum test (wheat)/curative; details: application rate 25 g/ha, curative, evaluation 8 days after inoculation
Method: Leptosphaeria nodorum Test (Wheat)/Curative • Solvent: 50 parts by weight of N,N-dimethylacetamide • Emulsifier: 1 part by weight of alkylaryl polyglycol ether
To test for curative activity, young plants are sprayed with a conidia suspension of Leptosphaeria nodorum.
The plants are placed in a greenhouse at a temperature of about 15° C. and a relative atmospheric humidity of about 80%.
(§1) Evaluation is carried out 8 days after the inoculation.

[8] = system: Puccinia recondita; experiment: Puccinia recondita test (wheat)/curative; details: application rate 62.5 g/ha, curative, evaluation 8 days after inoculation
Method: Puccinia recondita Test (Wheat)/Curative • Solvent: 50 parts by weight of N,N-dimethylacetamide • Emulsifier: 1 part by weight of alkylaryl polyglycol ether
To test for curative activity, young plants are sprayed with a conidia suspension of Puccinia recondita. The plants remain in an incubation cabinet at 20° C. and 100% relative atmospheric humidity for 48 hours.
The plants are placed in a greenhouse at a temperature of about 20° C. and a relative atmospheric humidity of about 80% to promote the development of rust pustules.
as §1

[9] = system: Phytophthora infestans; details: in vivo
[10] = system: Botrytis cinerea; experiment: Botrytis cinerea test (in vitro)/microtitre plates; type: cell-based; details: 3 ppm, PDB, 7 days of incubation
[11] = system: Rhizoctonia solani; experiment: Rhizoctonia solani test (in vitro)/microtitre plates; type: cell-based; details: PDB, 5 days of incubation
Method: Rhizoctonia solani Test (In Vitro)/Microtitre Plates The microtest is carried out in microtitre plates using potato dextrose broth (PDB) as liquid test medium. The active compounds are used as technical grade a.i., dissolved in acetone. For inoculation, a mycelium suspension of Rhizoctonia solani is used. After 5 days of incubation in the dark and with shaking (10 Hz) for each filled cavity of the microtitre plates, the light transmittance is determined with the aid of a spectrophotometer.

[12] = system: Botrytis cinerea; experiment: Botrytis cinerea test (bean)/protective; details: protective, 2 days after inoculation
Method: After the spray coating has dried on, 2 small pieces of agar colonized by Botrytis cinerea are placed onto each leaf. The inoculated plants are placed in a darkened chamber at about 20° C. and 100% relative atmospheric humidity.
The size of the infected areas on the leaves is evaluated 2 days after the inoculation.

[13] = system: Pyricularia oryzae; type: cell-based; details: 3 ppm; in vitro, PDB, 3 days of incubation
[14] = system: Plasmopara viticola; experiment: Plasmopara viticola test (grapevine)/protective; type: in vivo; details: protective, 6 days after inoculation
[15] = system: Gibberella zeae; type: cell-based; details: 0.3 ppm; in vitro, PDB, 3 days of incubation
[16] = Podosphaera fuliginea, 168 h, read-out: Efficacy in % found
[17] = Podosphaera fuliginea, 168 h, application rate 10 g/ha, read-out: Efficacy in % found

Compound: N#Cc1ccccc1NC(=O)c1snc(Cl)c1Cl [3,4-dichloro-N-(2-cyanophenyl)isothiazole-5-carboxamide]
- pest or weed control at 125 g/ha [1]: 43%

Compound: Cc1nn(C)c(F)c1C(=O)Nc1ccccc1C(C)CC(C)(C)C (centres unmarked) [(1-8), 5-fluoro-1,3-dimethyl-N-[2-(1,3,3-trimethylbutyl)phenyl]-1H-pyrazole-4-carboxamide]
- Efficacy in % found [2]: 0%
- Efficacy in % found [3]: 11%
- pest or weed control at 25 g/ha [1]: 14%

Compound: CC(C)CC(C)c1ccccc1NC(=O)c1ccccc1I (centres unmarked) [(1-13), N-[2-(1,3-dimethylbutyl)phenyl]-2-iodobenzamide]
- Efficacy in % found [4]: 13%
- Efficacy in % found [3]: 0%
- Efficacy in % found ([5]; application rate 2 g/ha): 0%
- pest or weed control at 1 g/ha [6, 16]: 10%
- Efficacy in % found [7]: 0%

Compound: CC(C)CC(C)c1ccccc1NC(=O)c1ccccc1C(F)(F)F (centres unmarked) [(1-15), N-[2-(1,3-dimethylbutyl)phenyl]-2-(trifluoromethyl)benzamide]
- Efficacy in % found [3]: 0%
- pest or weed control at 25 g/ha [1]: 14%

Compound: CO/C=C(/C(=O)OC)c1ccccc1Oc1cc(Oc2ccccc2C#N)ncn1 [(2-1) azoxystrobin, azoxystrobin]
- pest or weed control at 4 g/ha ([6]; Podosphaera fuliginea, 168 h, application rate 4 g/ha, read-out: Efficacy in % found): 50%

Compound: CO/N=C(/C1=NOCCO1)c1ccccc1Oc1ncnc(Oc2ccccc2Cl)c1F [(2-2) fluoxastrobin, fluoxastrobin]
- pest or weed control at 25 g/ha [1]: 0%
- pest or weed control at 2 g/ha [6, 16]: 37%
- Efficacy in % found [7]: 29%

Compound: CNC(=O)/C(=N/OC)c1ccccc1Oc1ncnc(Oc2cccc(Cl)c2C)c1F [(2-3), (2E)-2-(2-{[6-(3-chloro-2-methylphenoxy)-5-fluoro-4-pyrimidinyl]oxy}phenyl)-2-(methoxyimino)-N-methylethanamide]
- Efficacy in % found ([5]; application rate 1 g/ha): 39%
- Efficacy in % found ([5]; application rate 2 g/ha): 32%

Compound: CO/N=C(/C(=O)OC)c1ccccc1CO/N=C(\C)c1cccc(C(F)(F)F)c1 [(2-4) trifloxystrobin, trifloxystrobin]
- Efficacy in % found [3]: 78%
- pest or weed control at 1 g/ha [6, 16]: 20%

Compound: CO/N=C(/C(=O)OC)c1ccccc1COc1ccccc1C [(2-9) kresoxim-methyl, kresoxim-methyl]
- Efficacy in % found [8]: 0%

Compound: CO/C=C(/C(=O)OC)c1ccccc1COc1cccc(C(F)(F)F)n1 [(2-11) picoxystrobin, picoxystrobin]
- pest or weed control at 125 g/ha [1]: 86%

Compound: COC(=O)N(OC)c1ccccc1COc1ccn(-c2ccc(Cl)cc2)n1 [(2-12) pyraclostrobin, pyraclostrobin]
- Efficacy in % found ([5]; application rate 2 g/ha): 37%

Compound: CCCC1COC(Cn2cncn2)(c2ccc(Cl)cc2Cl)O1 (centres unmarked) [(3-3) propiconazole, propiconazole]
- pest or weed control at 1 g/ha [6, 16]: 37%

Compound: Fc1ccc(C2(Cn3cncn3)OC2c2ccccc2Cl)cc1 (centres unmarked) [(3-12) epoxyconazole, epoxiconazole]
- pest or weed control at 125 g/ha [1]: 57%

Compound: OC(Cc1ccccc1Cl)(Cn1nc[nH]c1=S)C1(Cl)CC1 (centres unmarked) [(3-15) prothioconazole, prothioconazole]
- Efficacy in % found [2]: 22%
- Efficacy in % found [4]: 13%
- Efficacy in % found [3]: 67%
- pest or weed control at 1 g/ha [6, 16]: 43%

Compound: CC(C)(C)C(O)(CCc1ccc(Cl)cc1)Cn1cncn1 (centres unmarked) [(3-17) tebuconazole, tebuconazole]
- pest or weed control at 25 g/ha [1]: 29%
- pest or weed control at 2 g/ha [6, 16]: 10%
- Efficacy in % found [7]: 29%

Compound: CC(C)(C)C(O)C(Oc1ccc(-c2ccccc2)cc1)n1cncn1 (centres unmarked) [(3-21) bitertanol, bitertanol]
- pest or weed control at 2 g/ha [6, 16]: 20%

Compound: Cc1ccc(N(SC(F)(Cl)Cl)S(=O)(=O)N(C)C)cc1 [(4-2) tolylfluanid, tolylfluanid]
- pest or weed control at 10 g/ha [6, 17]: 0%

Compound: Cc1ccc(C(C)NC(=O)[C@H](NC(=O)OC(C)C)C(C)C)cc1 (some centres unmarked) [(5-1) iprovalicarb, iprovalicarb]
- Efficacy in % found [9]: 64%

Compound: CC(C)OC(=O)N[C@H](C(=O)N[C@H](C)c1nc2ccc(F)cc2s1)C(C)C [(5-3) benthiavalicarb, benthiavalicarb]
- Efficacy in % found [9]: 50%

Compound: O=C(Nc1ccccc1-c1ccc(Cl)cc1)c1cccnc1Cl [(6-2) boscalid, boscalid]
- pest or weed control at 1 g/ha [6, 16]: 10%

Compound: CC1(C(=O)Nc2ccc(O)c(Cl)c2Cl)CCCCC1 [(6-6) fenhexamid, fenhexamid]
- pest or weed control at 10 g/ha [6, 17]: 0%

Compound: CCC1(C(=O)NC(C)c2ccc(Cl)cc2)C(C)C1(Cl)Cl (centres unmarked) [(6-7) carpropamid, carpropamid]
- pest or weed control at 125 g/ha [1]: 14%

Compound: CC(C)CC(C)c1sccc1NC(=O)c1cn(C)nc1C(F)(F)F (centres unmarked) [(6-14) penthiopyrad, penthiopyrad]
- Efficacy in % found [8]: 44%

Compound: COCC(=O)N(c1c(C)cccc1C)[C@H](C)C(=O)OC [(8-4) metalaxyl-M, metalaxyl-M]
- Efficacy in % found ([5]; application rate 2 g/ha): 0%

Compound: COC(=O)[C@@H](C)N(C(=O)Cc1ccccc1)c1c(C)cccc1C [(8-5) benalaxyl-M, benalaxyl-M]
- Efficacy in % found ([5]; application rate 2 g/ha): 0%

Compound: Cc1cc(C)nc(Nc2ccccc2)n1 [(9-3) pyrimethanil, pyrimethanil]
- pest or weed control at 10 g/ha [6, 17]: 0%

Compound: COC(=O)Nc1nc2ccccc2[nH]1 [(10-3) carbendazim, carbendazim]
- Efficacy in % found [10]: 86%

Compound: CCCOC(=O)NCCCN(C)C [(11-2) propamocarb, propamocarb]
- Efficacy in % found ([11]; 1 ppm): 7%

Compound: CC(C)NC(=O)N1CC(=O)N(c2cc(Cl)cc(Cl)c2)C1=O [(12-4) iprodione, iprodione]
- Efficacy in % found ([12]; application rate 5 g/ha): 13%
- Efficacy in % found ([12]; application rate 10 g/ha): 54%
- Efficacy in % found ([12]; application rate 20 g/ha): 47%
- pest or weed control at 10 g/ha [6, 17]: 0%

Compound: CCCN(CCOc1c(Cl)cc(Cl)cc1Cl)C(=O)n1ccnc1 [(14-2) prochloraz, prochloraz]
- Efficacy in % found [8]: 0%

Compound: [O-][n+]1nc(-n2ccnc2)nc2ccc(Cl)cc21 [(14-3) triazoxide, triazoxide]
- Efficacy in % found [13]: 3%

Compound: N#Cc1c[nH]cc1-c1cccc2c1OC(F)(F)O2 [(16-2) fludioxonil, fludioxonil]
- Efficacy in % found [8]: 0%

Compound: CCO[PH](=O)O [(17-1) fosetyl-A1, fosetyl-A1]
- Efficacy in % found ([14]; application rate 500 g/ha): 33%
- Efficacy in % found ([14]; application rate 1000 g/ha): 58%

Compound: N#Cc1c(Cl)c(Cl)c(Cl)c(C#N)c1Cl [(19-2) chlorothalonil, chlorothalonil]
- pest or weed control at 10 g/ha [6, 17]: 0%

Compound: CSC1=N[C@@](C)(c2ccccc2)C(=O)N1Nc1ccccc1 [(19-3) fenamidone]
- Efficacy in % found [15]: 15%

Compound: CCCN(CC)CC1COC2(CCC(C(C)(C)C)CC2)O1 (centres unmarked) [(19-10) spiroxamine, spiroxamine]
- Efficacy in % found [8]: 0%
- pest or weed control at 10 g/ha [6, 17]: 0%

Compound: CSC1=N[C@@](C)(c2ccccc2)C(=O)N1Nc1ccccc1 [(19-13) fenamidone, fenamidone]
- Efficacy in % found [9]: 47%

Compound: O=C(Nc1ccccc1)N(Cc1ccc(Cl)cc1)C1CCCC1 [(20-1) pencycuron, pencycuron]
- Efficacy in % found ([11]; 1 ppm): 54%

Compound: C[C@H](Nc1c(-c2c(F)cc(F)cc2F)c(Cl)nc2ncnn12)C(F)(F)F [(22-1), 5-chloro-N—[(IS)-2,2,2-trifluoro-1-methylethyl]-6-(2,4,6-trifluorophenyl)[1,2,4]triazolo-[1,5-a]pyrimidine-7-amine]
- pest or weed control at 1 g/ha [6, 16]: 22%

Compound: CC(C)[C@@H](C)Nc1c(-c2c(F)cc(F)cc2F)c(Cl)nc2ncnn12 [(22-2), 5-chloro-N—[(IR)-1,2-dimethylpropyl]-6-(2,4,6-trifluorophenyl)[1,2,4]triazolo[1,5-a]-pyrimidine-7-amine]
- pest or weed control at 1 g/ha [6, 16]: 22%

Compound: Cn1cc(C(=O)Nc2ccc(F)cc2-c2ccc(Cl)c(Cl)c2)c(C(F)F)n1 [(24-1), N-(3′,4′-dichloro-5-fluoro-1,1′-biphenyl-2-yl)-3-(difluoromethyl)-1-methyl-1H-pyrazole-4-carboxamide]
- Efficacy in % found [9]: 0%
- Efficacy in % found ([11]; 0.003 ppm): 50%

Compound: mancozeb [(7-1) mancozeb]
- Efficacy in % found ([6]; application rate 10 g/ha): 0%

Compound: propineb [(7-4) propineb]
- Efficacy in % found ([6]; application rate 5 g/ha): 0%
